Here are results for one molecule from EP3095787A1, “[…] ACTIVE COMPOUNDS AS DAG-LIPASE INHIBITORS” (Universiteit Leiden, priority 2015, dated 2016).

“Also recorded” adds a separate entry of the source.

One assay relates to serine hydrolases. The experiment in a line: Chemoproteomics with THL-biotin (MB108) and FP-biotin in mouse brain membrane proteome: other serine hydrolases. The assay is classed as biochemical. Conditions: 10 µM, 30 min. Here is the method:
Since, the human serine hydrolase family contains approximately 200 family members, the selectivity in brain proteome was examined in a broader and more detailed manner. […] Mouse brain proteome (500 μL, 2.0 mg/mL) membrane or soluble fraction was incubated with vehicle (DMSO) or inhibitor (10 μM) in DMSO for 30 minutes at rt. The proteome was labeled with MB108 (2.5 μM, 30 minutes, rt) or FP-Biotin (5 μM, 30 minutes, 37 °C). Subsequently the labeling reaction was quenched and excess probe was removed by chloroform methanol precipitation. Precipitated proteome was suspended in 500 μL 6M Urea/25 mM ammonium bicarbonate and allowed to incubate for 15 minutes. 5 μL (1 M DTT) was added and the mixture was heated to 65 °C for 15 minutes. […] The sample was diluted with 6 mL PBS. 100 μL of 50% slurry of Avidin-Agarose from egg white (Sigma-Aldrich) was washed with PBS and added to the proteome sample. The beads were incubated with the proteome > 2h. The beads were isolated by centrifugation and washed with 0.5% (wt/vol) SDS and PBS (3x). […] Tryptic peptides were analyzed on a Surveyor nanoLC system (Thermo) hyphenated to a LTQ-Orbitrap mass spectrometer (Thermo). […] Fragmented precursor ions that were measured twice within 10 s were dynamically excluded for 60 s and ions with z < 2 or unassigned were not analyzed. […]

Another assay has as its target T1, DAGL-β (Mus musculus, UniProt Q91WC9).
T1 construct: from tissue; host or cells: mouse spleen membrane proteome
T1 sequence (Q91WC9 1-669): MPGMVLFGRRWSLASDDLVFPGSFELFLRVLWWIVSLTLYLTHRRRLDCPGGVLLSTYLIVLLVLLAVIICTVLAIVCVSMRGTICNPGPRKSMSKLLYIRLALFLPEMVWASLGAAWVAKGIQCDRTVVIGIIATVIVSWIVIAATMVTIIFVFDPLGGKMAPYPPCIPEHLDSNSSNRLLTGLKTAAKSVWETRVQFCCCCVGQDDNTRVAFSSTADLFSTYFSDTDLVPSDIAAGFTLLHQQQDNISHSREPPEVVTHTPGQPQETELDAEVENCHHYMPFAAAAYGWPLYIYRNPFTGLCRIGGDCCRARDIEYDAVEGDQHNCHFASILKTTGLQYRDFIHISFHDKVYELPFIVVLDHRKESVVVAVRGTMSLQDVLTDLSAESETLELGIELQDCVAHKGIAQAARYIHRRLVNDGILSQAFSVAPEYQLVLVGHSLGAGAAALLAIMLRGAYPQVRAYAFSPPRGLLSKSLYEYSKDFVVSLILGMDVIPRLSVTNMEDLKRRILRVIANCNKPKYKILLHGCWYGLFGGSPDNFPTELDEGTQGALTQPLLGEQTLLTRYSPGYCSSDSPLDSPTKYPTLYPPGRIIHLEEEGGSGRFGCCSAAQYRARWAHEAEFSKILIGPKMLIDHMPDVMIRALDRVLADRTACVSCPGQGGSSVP
As to the kind of experiment: Competitive ABPP with MB064 in mouse spleen membrane proteome. The assay is classed as biochemical. Conditions: 10 µM compound, MB064 1.0 µM.

For `Cc1ccc(-c2cnc3nc(C(=O)CCCCCc4ccccc4)oc3c2)cc1` [Compound 25, 1-(6-(p-Tolyl)oxazolo[4,5-b]pyridin-2-yl)-6-phenylhexan-1-one], the “labeling of other serine hydrolases” value in the assay with serine hydrolases is listed as “no other targets were detected; also recorded: not of any other serine hydrolase identified”. For the same molecule, the “Native DAGL-β activity (labeling by MB064)” value on DAGL-β is given as “can block labeling of endogenously expressed DAGL-β; also recorded: could also be inhibited”.
